Experimental data from publication PMC9954273, “Construction and Manipulation of Serial Gradient Dilution Array on a Microfluidic Slipchip for Screening and Characterizing Inhibitors against Human Pancreatic Lipase” (Biosensors, 2023).
Read-outs that look alike come from different tables or passages of the source.

Columns and labels:
[1] = target: T1, human pancreatic lipase (hPL) (Homo sapiens, UniProt P16233); test: Fluorescence-based hPL inhibition assay on microfluidic SlipChip (DDAO-ol hydrolysis); assay type: biochemical; conditions: for inhibition of hPL-catalyzed DDAO-ol hydrolysis (in words): dose-inhibition curves, Figure 5; for IC50: substrate DDAO-ol 20 μM, hPL 0.25 μg/mL, seven 1:1 gradient concentrations, triplicate, read-out: IC50 against hPL (SlipChip)
T1 sequence (P16233 17-465): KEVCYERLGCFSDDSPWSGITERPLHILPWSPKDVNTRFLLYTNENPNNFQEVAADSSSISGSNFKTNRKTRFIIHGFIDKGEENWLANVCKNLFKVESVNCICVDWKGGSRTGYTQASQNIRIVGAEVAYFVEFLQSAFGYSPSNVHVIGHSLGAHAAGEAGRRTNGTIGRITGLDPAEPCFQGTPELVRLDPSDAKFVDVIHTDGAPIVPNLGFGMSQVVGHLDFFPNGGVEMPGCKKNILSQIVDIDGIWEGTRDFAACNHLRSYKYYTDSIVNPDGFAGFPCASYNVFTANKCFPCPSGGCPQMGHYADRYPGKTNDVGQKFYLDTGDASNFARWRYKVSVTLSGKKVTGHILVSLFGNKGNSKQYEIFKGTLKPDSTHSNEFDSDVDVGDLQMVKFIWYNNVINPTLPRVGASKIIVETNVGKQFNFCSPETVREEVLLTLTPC
Procedure: Fluorescence-based assays were used to determine the residual activities of hPL in the presence of different concentrations of inhibitor, and to calculate the IC50 of the inhibitors. […] Then, the inhibitor at the initial concentration was injected into the P1 fluidic path, followed by injecting DMSO into the P2, P3 and P4 fluidic paths. After sliding the SlipChip as described in Section 2.3 with optimized conditions, seven microchambers containing inhibitors with gradient concentrations were formed. At the same time, the enzyme-substrate system was prepared by mixing 111 μL Tris-HCl (pH 7.4, 25 mM), 80 μL bile salts (0.1 mg/mL, final concentration), 1 μL hPL (dissolved in Tris-HCl buffer, 0.25 μg/mL, final concentration) and 8 μL substrate (DDAO-ol, dissolved in DMSO, 20 μM, final concentration). After pipetting out the residual DMSO in the new path (P5), the prepared enzyme-substrate mixture was immediately injected into the P5 fluidic path. Finally, the top layer was slipped down and to the right, transporting the serial gradient array of inhibitor to the solution of the enzyme-substrate system. […] After 3 min, […] The SlipChip device was then placed under the Olympus IX83 inverted microscope with the same fluorescent condition to obtain the photos of each microchamber. The gray value of the fluorescent photo was analyzed by ImageJ software. The residual activity of hPL was calculated using the following formula: the residual activity (%) = the fluorescence intensity of the test sample/the fluorescence intensity in negative control (DMSO only) × 100%.
All inhibition assays were performed in triplicate (three technical replicates) for each concentration of the inhibitors. IC50 and values were calculated using GraphPad Prism 7.0 (GraphPad Software, Inc., La Jolla, CA, USA).

[2] = target: T1, human pancreatic lipase (hPL); conditions: past studies of the authors, cited from earlier work

CCCCCCCCCCC[C@@H](C[C@@H]1OC(=O)[C@H]1CCCCCC)OC(=O)[C@H](CC(C)C)NC=O [Orlistat]
inhibition of hPL-catalyzed DDAO-ol hydrolysis (in words) [1]: strongly inhibited hPL-catalyzed DDAO-ol hydrolysis in a dose-dependent manner

O=C(OC[C@H]1O[C@@H](OC(=O)c2cc(O)c(O)c(O)c2)[C@H](OC(=O)c2cc(O)c(O)c(O)c2)[C@@H](OC(=O)c2cc(O)c(O)c(O)c2)[C@@H]1OC(=O)c1cc(O)c(O)c(O)c1)c1cc(O)c(O)c(O)c1 [PGG, 1,2,3,4,6-penta-O-galloyl-β-D-glucopyranose]
inhibition of hPL-catalyzed DDAO-ol hydrolysis (in words) [1]: strongly inhibited hPL-catalyzed DDAO-ol hydrolysis in a dose-dependent manner
IC50 [1]: 8.22 nM
IC50 ([2]; read-out: IC50, anti-hPL activity): 7.59 nM

COc1ccc(-c2cc(=O)c3c(O)cc(O)c(-c4cc(-c5cc(=O)c6c(O)cc(OC)cc6o5)ccc4OC)c3o2)cc1 [sciadopitysin]
inhibition of hPL-catalyzed DDAO-ol hydrolysis (in words) [1]: strongly inhibited hPL-catalyzed DDAO-ol hydrolysis in a dose-dependent manner
IC50 [1]: 800 nM
IC50 ([2]; read-out: IC50, inhibitory effect on hPL): 750 nM
